From PubChem BioAssay (NCI)
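In this assay, cells in 96-well plates receive the compound at five concentrations for 48 hours. Endpoints are linearly interpolated between the surrounding concentrations. TGI marks complete inhibition of growth.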

Assays:
Assay in all cases: NCI tumour cell line growth inhibition, 48 h
786-0 renal = tested on: 786-0 renal
A498 renal = tested on: A498 renal
A549 NSCLC = tested on: A549 NSCLC
ACHN renal = tested on: ACHN renal
BT-549 breast = tested on: BT-549 breast
CAKI-1 renal = tested on: CAKI-1 renal
CCRF-CEM leukemia = tested on: CCRF-CEM leukemia
COLO 205 colon = tested on: COLO 205 colon
DU-145 prostate = tested on: DU-145 prostate
EKVX NSCLC = tested on: EKVX NSCLC
HCC-2998 colon = tested on: HCC-2998 colon
HCT-116 colon = tested on: HCT-116 colon
HCT-15 colon = tested on: HCT-15 colon
HOP-62 NSCLC = tested on: HOP-62 NSCLC
HOP-92 NSCLC = tested on: HOP-92 NSCLC
HS 578T breast = tested on: HS 578T breast
HT29 colon = tested on: HT29 colon
IGROV1 ovarian = tested on: IGROV1 ovarian
K-562 leukemia = tested on: K-562 leukemia
KM12 colon = tested on: KM12 colon
LOX IMVI melanoma = tested on: LOX IMVI melanoma
M14 melanoma = tested on: M14 melanoma
MALME-3M melanoma = tested on: MALME-3M melanoma
MCF7 breast = tested on: MCF7 breast
MDA-MB-231 breast = tested on: MDA-MB-231 breast
MDA-MB-435 = tested on: MDA-MB-435
MDA-N = tested on: MDA-N
MOLT-4 leukemia = tested on: MOLT-4 leukemia
NCI-H23 lung = tested on: NCI-H23 lung
NCI-H460 lung = tested on: NCI-H460 lung
NCI-H522 lung = tested on: NCI-H522 lung
NCI/ADR-RES ovarian = tested on: NCI/ADR-RES ovarian
OVCAR-3 ovarian = tested on: OVCAR-3 ovarian
OVCAR-4 ovarian = tested on: OVCAR-4 ovarian
OVCAR-5 ovarian = tested on: OVCAR-5 ovarian
OVCAR-8 ovarian = tested on: OVCAR-8 ovarian
PC-3 prostate = tested on: PC-3 prostate
RPMI-8226 leukemia = tested on: RPMI-8226 leukemia
RXF 393 renal = tested on: RXF 393 renal
SF-268 CNS = tested on: SF-268 CNS
SF-295 CNS = tested on: SF-295 CNS
SF-539 CNS = tested on: SF-539 CNS
SK-MEL-2 melanoma = tested on: SK-MEL-2 melanoma
SK-MEL-28 melanoma = tested on: SK-MEL-28 melanoma
SK-MEL-5 melanoma = tested on: SK-MEL-5 melanoma
SK-OV-3 ovarian = tested on: SK-OV-3 ovarian
SN12C renal = tested on: SN12C renal
SNB-19 CNS = tested on: SNB-19 CNS
SNB-75 CNS = tested on: SNB-75 CNS
SR leukemia = tested on: SR leukemia
SW-620 colon = tested on: SW-620 colon
T-47D breast = tested on: T-47D breast
TK-10 renal = tested on: TK-10 renal
U251 CNS = tested on: U251 CNS
UACC-257 melanoma = tested on: UACC-257 melanoma
UACC-62 melanoma = tested on: UACC-62 melanoma
UO-31 renal = tested on: UO-31 renal
HL-60(TB) leukemia = tested on: HL-60(TB) leukemia
NCI-H226 lung = tested on: NCI-H226 lung

`Oc1ccc2ccccc2c1CN(Cc1c(O)ccc2ccccc12)C1CCCCC1` showed a TGI (786-0 renal) of 30.7 µM, a TGI (A498 renal) of 71.6 µM and a TGI (A549 NSCLC) of 44.4 µM. For the same molecule, the TGI (ACHN renal) was 34.7 µM, the TGI (BT-549 breast) was 42.7 µM and the TGI (CAKI-1 renal) was 33.6 µM. For the same molecule, the TGI (CCRF-CEM leukemia) was over 100 µM, the TGI (COLO 205 colon) was 29.6 µM and the TGI (DU-145 prostate) was 42.8 µM. The TGI (EKVX NSCLC) was 29.7 µM, the TGI (HCC-2998 colon) was 27.7 µM and the TGI (HCT-116 colon) was 29.3 µM. It also gave a TGI (HCT-15 colon) of 45.4 µM, a TGI (HOP-62 NSCLC) of over 100 µM and a TGI (HOP-92 NSCLC) of 37.1 µM. It also gave a TGI (HS 578T breast) of 79 µM, a TGI (HT29 colon) of 39.6 µM and a TGI (IGROV1 ovarian) of 27.6 µM. The TGI (K-562 leukemia) was 53.5 µM, the TGI (KM12 colon) was over 100 µM and the TGI (LOX IMVI melanoma) was 28.2 µM. It also gave a TGI (M14 melanoma) of 31.3 µM, a TGI (MALME-3M melanoma) of 29.2 µM and a TGI (MCF7 breast) of 29.3 µM. For the same molecule, the TGI (MDA-MB-231 breast) was 44.1 µM, the TGI (MDA-MB-435) was 43.6 µM and the TGI (MDA-N) was 28.7 µM. The TGI (MOLT-4 leukemia) was 41.4 µM, the TGI (NCI-H23 lung) was 31.5 µM and the TGI (NCI-H460 lung) was 51 µM. For the same molecule, the TGI (NCI-H522 lung) was 27.1 µM, the TGI (NCI/ADR-RES ovarian) was 54.9 µM and the TGI (OVCAR-3 ovarian) was 41.7 µM. It also gave a TGI (OVCAR-4 ovarian) of 47.1 µM, a TGI (OVCAR-5 ovarian) of over 100 µM and a TGI (OVCAR-8 ovarian) of 44.6 µM. For the same molecule, the TGI (PC-3 prostate) was 38.2 µM, the TGI (RPMI-8226 leukemia) was 97.2 µM and the TGI (RXF 393 renal) was 46.7 µM. It also gave a TGI (SF-268 CNS) of 27 µM, a TGI (SF-295 CNS) of over 100 µM and a TGI (SF-539 CNS) of 29.4 µM. It also gave a TGI (SK-MEL-2 melanoma) of 67.1 µM, a TGI (SK-MEL-28 melanoma) of 51.9 µM and a TGI (SK-MEL-5 melanoma) of 28.1 µM. For the same molecule, the TGI (SK-OV-3 ovarian) was over 100 µM, the TGI (SN12C renal) was 28 µM and the TGI (SNB-19 CNS) was 90.2 µM. For the same molecule, the TGI (SNB-75 CNS) was 50.5 µM, the TGI (SR leukemia) was 83.9 µM and the TGI (SW-620 colon) was 48.9 µM. It also gave a TGI (T-47D breast) of over 100 µM, a TGI (TK-10 renal) of 36.9 µM and a TGI (U251 CNS) of 45.2 µM. The TGI (UACC-257 melanoma) was 28.7 µM, the TGI (UACC-62 melanoma) was 32.9 µM and the TGI (UO-31 renal) was 38.1 µM.
For `COc1cc(C2SC(N)=Nc3c2c(C)nn3C(=O)c2ccc(Cl)cc2)cc(OC)c1OC` (centres undefined), the TGI (786-0 renal) was over 10 µM, the TGI (A549 NSCLC) was over 10 µM and the TGI (ACHN renal) was over 10 µM. The TGI (BT-549 breast) was over 10 µM, the TGI (CAKI-1 renal) was over 10 µM and the TGI (CCRF-CEM leukemia) was over 10 µM. The TGI (COLO 205 colon) was over 10 µM, the TGI (DU-145 prostate) was over 10 µM and the TGI (EKVX NSCLC) was over 10 µM. It also gave a TGI (HCC-2998 colon) of over 10 µM, a TGI (HCT-116 colon) of over 10 µM and a TGI (HCT-15 colon) of over 10 µM. It also gave a TGI (HL-60(TB) leukemia) of over 10 µM, a TGI (HOP-62 NSCLC) of over 10 µM and a TGI (HOP-92 NSCLC) of over 10 µM. It also gave a TGI (HS 578T breast) of over 10 µM, a TGI (HT29 colon) of over 10 µM and a TGI (IGROV1 ovarian) of over 10 µM. The TGI (K-562 leukemia) was over 10 µM, the TGI (KM12 colon) was over 10 µM and the TGI (LOX IMVI melanoma) was over 10 µM. The TGI (M14 melanoma) was over 10 µM, the TGI (MALME-3M melanoma) was over 10 µM and the TGI (MCF7 breast) was over 10 µM. It also gave a TGI (MDA-MB-231 breast) of over 10 µM, a TGI (MDA-MB-435) of over 10 µM and a TGI (MDA-N) of over 10 µM. For the same molecule, the TGI (MOLT-4 leukemia) was over 10 µM, the TGI (NCI-H226 lung) was over 10 µM and the TGI (NCI-H23 lung) was over 10 µM. The TGI (NCI-H460 lung) was over 10 µM, the TGI (NCI-H522 lung) was over 10 µM and the TGI (NCI/ADR-RES ovarian) was over 10 µM. The TGI (OVCAR-3 ovarian) was over 10 µM, the TGI (OVCAR-4 ovarian) was over 10 µM and the TGI (OVCAR-5 ovarian) was over 10 µM. It also gave a TGI (OVCAR-8 ovarian) of over 10 µM, a TGI (PC-3 prostate) of over 10 µM and a TGI (RPMI-8226 leukemia) of over 10 µM. The TGI (RXF 393 renal) was over 10 µM, the TGI (SF-268 CNS) was over 10 µM and the TGI (SF-295 CNS) was over 10 µM. The TGI (SF-539 CNS) was over 10 µM, the TGI (SK-MEL-2 melanoma) was over 10 µM and the TGI (SK-MEL-28 melanoma) was over 10 µM. It also gave a TGI (SK-MEL-5 melanoma) of over 10 µM, a TGI (SK-OV-3 ovarian) of over 10 µM and a TGI (SN12C renal) of over 10 µM. The TGI (SNB-19 CNS) was over 10 µM, the TGI (SNB-75 CNS) was over 10 µM and the TGI (SR leukemia) was over 10 µM. For the same molecule, the TGI (SW-620 colon) was over 10 µM, the TGI (T-47D breast) was over 10 µM and the TGI (TK-10 renal) was over 10 µM. For the same molecule, the TGI (U251 CNS) was over 10 µM, the TGI (UACC-257 melanoma) was over 10 µM and the TGI (UACC-62 melanoma) was over 10 µM.
